Drawing on ChEMBL document CHEMBL1949643, “Dactylomelatriol, a biogenetically intriguing omphalane-derived marine sesquiterpene” (2012), this text covers MIC for 2 compounds.

The subject of one experiment is Bacillus cereus. Kind of experiment: Antimicrobial activity against Bacillus cereus ATCC 21772 by broth macrodilution method. It counts as functional.
In the next experiment the test system is Candida albicans. Kind of experiment: Antifungal activity against Candida albicans SC5314 by broth macrodilution method. It counts as functional.

Consider `C=C1C[C@H](O)[C@H](Br)C(C)(C)[C@@]12CCC(C)=C(Cl)C2` [ELATOL], for which the minimal inhibitory concentration (MIC) against Bacillus cereus is > 50 mg/L.
Regarding `C=C1C[C@@H](O)[C@@H](Br)C(C)(C)[C@]12CC[C@@](C)(Br)[C@H](Cl)C2` [OBTUSOL], the minimal inhibitory concentration (MIC) against Candida albicans and with Bacillus cereus was > 50 mg/L throughout.
